This is an account of results in patent publication US7498309B2, “Pharmaceutical compositions for bioactive peptide agents” (Sangstat Medical Corporation, priority 2003, dated 2009).

The subject of data set [1] is cynomolgus monkeys with chronic and naturally occurring colitis. In words: RDP58 capsule therapy in primates suffering from colitis (stool quality scores). The format is in vivo. As to conditions: for response to therapy: capsule from day 0. As to the method:
RDP58 oral therapy is believed to have a beneficial effect on resolution of clinical signs of chronic colitis in primates suffering from a naturally occurring colitis like condition. In these studies, RDP58 was administered in aqueous form (i.e., powder dissolved in water) by oral gavage. The objective of the pilot study described in this example was to analyze the effect of administering RDP58 in capsule form to primates suffering from a chronic, naturally occurring, colitis-like condition. Data generated from this study was compared to data obtained from previous studies where RDP58 peptide was administered in aqueous form.
Methods. Four cynomolgus monkeys, with documented clinical histories of chronic and naturally occurring colitis, were selected for the study. All animals were monitored for 7 days before initiating therapy. Animals were dosed with one capsule (approximately 13 mg per capsule) every day, starting on Day 0, for 14 days. A commercially available cat pilling gun was used. Disease activity was monitored using stool quality scores. The scoring system used was the following: 1=Normal; 2=Loose stool; 3=Watery diarrhea; and 4=Bloody diarrhea. Response is defined as an improvement in stool quality score by at least 1 point.
Animals were physically examined twice per day. After 14 days, RDP58 therapy was stopped and animals were monitored for 7 additional days. Stool quality was documented through this period.

Data set [2] in a line: Fill formulation: solubility and dispersion of the peptide in Labrafil M 1944 CS. The data set is classed as physicochemical. As to the method: Fill Formulation. […] The RDP58 peptide was not soluble in Labrafil M 1944 CS, thus a stable suspension of the peptide was made using Colloidal Silicon Dioxide, USP (Aerosil 300) as a suitable dispersing agent. Bench trials were performed to determine the needed quantity of Aerosil 300, which would provide a sufficient viscosity increase to maintain the peptide uniformly suspended for a minimum of 24 hours while allowing the fill formulation to remain flowable or pumpable. The fill formulation for the a 100 mg RDP58 softgel capsule is the following: […]

In data set [3] the test system is cynomolgus monkeys with chronic and naturally occurring colitis. In words: RDP58 capsule therapy in primates suffering from colitis (stool quality scores). As to conditions: animal MCY33636; capsule from day 0, treatment extended to day 21. The format is in vivo.
Where [4] appears, read: all animals studied, oral capsule.

“Also recorded” adds a separate entry of the source.

With `CCCC[C@@H](NC(=O)[C@H](N)CCCNC(=N)N)C(=O)N[C@H](CCCC)C(=O)N[C@H](CCCC)C(=O)N[C@H](CCCNC(=N)N)C(=O)N[C@H](CCCC)C(=O)N[C@H](CCCC)C(=O)N[C@H](CCCC)C(=O)NCC(=O)N[C@H](Cc1ccc(O)cc1)C(N)=O` [RDP58, NH2-(D)Arg-(D)nL-(D)nL-(D)nL-(D)Arg-(D)nL-(D)nL-(D)nL-Gly-(D)Tyr-NH2], the negative side effects result in data set [1] (setting [4]) is “None of the animals studied showed negative side effects”. Also, the tolerability of dosing result in data set [1] (setting [4]) is on record as “well tolerated”. Further, in data set [1] (all four animals, one capsule (approximately 13 mg) orally every day for 14 days, stool quality scores), the “effect on disease activity / therapeutic response” value is “positive effects; also recorded: positive therapeutic response”. In addition, the response to therapy result is “immediate response” in data set [1] (animal 33558), “immediate response” in data set [1] (animal MCY33560), “immediate positive response” in data set [1] (animal MCY33639) and “response was immediate” in data set [3]. In addition, the response to re-treatment entry in data set [1] (animal 33558, re-treated starting on day 23) is recorded as “Response to therapy was immediate”; in data set [1] (animal MCY33639, re-treated on day 23) it was “immediate positive response”. Besides, the “time animal remained normal after therapy was stopped” value in data set [1] (animal 33558, therapy stopped on day 14) fell in the range of 4 to 5 days. The “duration of normal stool quality” value in data set [1] (animal MCY33636) came to 8 days. Further, the “dispersion of the peptide” value in data set [2] (in Labrafil M 1944 CS) is on record as “enhanced dispersion”. The “solubility in Labrafil M 1944 CS” value in data set [2] (suspending agent Labrafil M 1944 CS) is listed as “not soluble”.
